Laboratory results from US10300060B2, “Trk-inhibiting compound” (ONO PHARMACEUTICAL CO., LTD., priority 2013, dated 2019).

Columns and labels:
[1] = target: KDR (Homo sapiens (Human), UniProt P35968); test: Enzyme-inhibiting activity test of kinases other than Trk (selectivity experiment): KDR; format: biochemical; settings: concentration of 3 μM; read-out: Inhibition rate (%) KDR
Experimental: (§1) A test substance (the present compound) was dissolved in dimethylsulfoxide to prepare a 100-fold concentration of the test concentration, 3 μM. The solution was further diluted to 25-fold with an assay buffer (20 mM HEPES, 0.01% Triton X-100, 2 mM DTT, pH 7.5) to obtain a test substance solution. In a similar manner a positive control substance solution was prepared with a positive control substance.
(§2) A 4-times concentration solution (5 μL) of the test substance prepared with the assay buffer, 5 μL of a 4-times concentration solution of substrate/ATP/metal (Mg) and 10 μL of a 2-times concentration solution of kinase were mixed in a well of a polypropylene 384-well plate and allowed to react at room temperature for 1 hour. The reaction was terminated by adding 60 μL of a Termination Buffer (QuickScout Screening Assist MSA; Carna Biosciences). The substrate peptide and the phosphorylated peptide in the reaction solution were separated and quantified. The kinase reaction was assessed from the product ratio (P/(P+S)) calculated from the height (S) of the peak of the substrate peptide and the height (P) of the peak of the phosphorylated peptide. Other kinases used in the kinase selectivity experiments were, for example, b-Raf and KDR. The following Table 3 indicates substrates, substrate concentrations, ATP concentrations and positive control substances used in respective kinase enzyme inhibition activity tests.

[2] = system: sodium monoiodoacetate-induced model rats; test: Analgesic effect on sodium monoiodoacetate-induced model rats; format: in vivo, rat; settings: MIA-induced model rats
[3] = target: b-Raf (Homo sapiens (Human), UniProt P15056); test: Enzyme-inhibiting activity test of kinases other than Trk (selectivity experiment): b-Raf; format: biochemical; settings: concentration of 3 μM; read-out: Inhibition rate (%) b-Raf
b-Raf, sequence (P15056 whole entry, species assumed): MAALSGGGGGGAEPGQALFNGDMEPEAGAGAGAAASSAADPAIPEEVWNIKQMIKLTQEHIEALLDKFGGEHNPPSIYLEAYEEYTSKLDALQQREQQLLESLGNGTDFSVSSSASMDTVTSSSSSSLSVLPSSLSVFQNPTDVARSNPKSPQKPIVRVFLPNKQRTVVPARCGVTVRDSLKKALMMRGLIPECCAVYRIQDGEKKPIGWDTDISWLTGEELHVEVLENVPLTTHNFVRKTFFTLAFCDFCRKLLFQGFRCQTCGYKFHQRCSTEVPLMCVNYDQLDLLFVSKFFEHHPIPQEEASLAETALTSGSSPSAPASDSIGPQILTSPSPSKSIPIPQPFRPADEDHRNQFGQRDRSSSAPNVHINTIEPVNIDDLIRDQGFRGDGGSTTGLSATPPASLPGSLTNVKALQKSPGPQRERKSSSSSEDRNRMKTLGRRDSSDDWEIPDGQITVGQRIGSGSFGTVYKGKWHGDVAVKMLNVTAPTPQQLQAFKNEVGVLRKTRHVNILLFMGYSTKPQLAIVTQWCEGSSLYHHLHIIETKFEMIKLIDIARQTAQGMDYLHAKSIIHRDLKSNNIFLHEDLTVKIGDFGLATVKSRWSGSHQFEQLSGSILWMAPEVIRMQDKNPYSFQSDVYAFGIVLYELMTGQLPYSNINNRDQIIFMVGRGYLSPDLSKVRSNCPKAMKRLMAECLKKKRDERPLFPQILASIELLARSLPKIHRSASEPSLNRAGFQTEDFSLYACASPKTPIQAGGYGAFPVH
Experimental: as §1, §2

[4] = test substance orally twice a day day 14 to 23, day 24 3 hours before measurement, right hind limb weight load ratio, experiment with tramadol as positive control
[5] = test substance orally twice a day day 14 to 23, day 24 3 hours before measurement, right hind limb weight load ratio, experiment with morphine as positive control

KDR, sequence (P35968 20-1356, species assumed): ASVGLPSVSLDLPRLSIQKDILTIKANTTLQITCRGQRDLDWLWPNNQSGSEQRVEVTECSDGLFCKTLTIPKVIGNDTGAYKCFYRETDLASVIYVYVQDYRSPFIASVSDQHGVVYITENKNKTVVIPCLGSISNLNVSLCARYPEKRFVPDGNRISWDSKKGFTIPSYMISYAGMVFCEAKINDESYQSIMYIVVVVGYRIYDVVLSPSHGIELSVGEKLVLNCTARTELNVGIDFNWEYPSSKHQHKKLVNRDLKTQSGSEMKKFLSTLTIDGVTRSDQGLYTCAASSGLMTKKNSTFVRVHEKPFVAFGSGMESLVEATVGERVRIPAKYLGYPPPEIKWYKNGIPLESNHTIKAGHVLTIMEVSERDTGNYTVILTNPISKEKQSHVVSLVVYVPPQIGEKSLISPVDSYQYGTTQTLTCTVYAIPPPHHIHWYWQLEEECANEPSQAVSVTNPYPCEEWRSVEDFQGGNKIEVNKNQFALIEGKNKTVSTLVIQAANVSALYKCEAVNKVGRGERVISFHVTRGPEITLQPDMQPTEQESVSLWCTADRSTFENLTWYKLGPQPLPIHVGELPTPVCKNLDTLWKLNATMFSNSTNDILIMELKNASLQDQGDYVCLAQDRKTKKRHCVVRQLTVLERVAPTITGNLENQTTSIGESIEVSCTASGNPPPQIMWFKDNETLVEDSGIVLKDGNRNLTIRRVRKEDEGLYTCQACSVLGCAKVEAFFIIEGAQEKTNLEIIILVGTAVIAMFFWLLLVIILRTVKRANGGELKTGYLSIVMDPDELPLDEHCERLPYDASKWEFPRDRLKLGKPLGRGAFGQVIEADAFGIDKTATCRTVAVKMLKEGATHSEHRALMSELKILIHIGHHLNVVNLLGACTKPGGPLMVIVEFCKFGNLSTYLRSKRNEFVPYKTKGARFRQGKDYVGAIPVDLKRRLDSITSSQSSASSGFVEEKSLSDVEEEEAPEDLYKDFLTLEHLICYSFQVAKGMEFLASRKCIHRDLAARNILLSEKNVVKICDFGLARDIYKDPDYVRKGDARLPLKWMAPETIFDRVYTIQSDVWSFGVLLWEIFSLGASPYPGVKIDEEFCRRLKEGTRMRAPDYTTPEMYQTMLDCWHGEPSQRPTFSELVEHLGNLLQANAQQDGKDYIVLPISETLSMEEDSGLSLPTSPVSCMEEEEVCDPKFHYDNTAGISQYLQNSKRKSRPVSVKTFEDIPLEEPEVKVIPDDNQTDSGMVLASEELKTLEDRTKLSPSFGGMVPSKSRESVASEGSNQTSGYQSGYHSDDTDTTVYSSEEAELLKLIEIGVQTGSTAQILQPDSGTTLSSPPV

With `Nc1ncc(Cl)cc1-c1ccc(Oc2ncc(NC(=O)Nc3cc(C(F)(F)F)ccc3-n3cccn3)cn2)cc1` [Example 7, 1-(2-(1H-pyrazol-1-yl)-5-(trifluoromethyl)phenyl)-3-(2-(4-(2-amino-5-chloropyridin-3-yl)phenoxy)pyrimidin-5-yl)urea] the inhibition at 3 µM [1] was 0%, the “Percent improvement (%)” value [2, 4] was 61% and the inhibition at 3 µM [3] was 40%.

For `Cc1cn(-c2ccc(C(F)(F)F)cc2NC(=O)Nc2cnc(Oc3ccc(-c4cc(Cl)cnc4N)cc3)nc2)nn1` [Example 8-1, 1-(2-(4-(2-amino-5-chloropyridin-3-yl)phenoxy)pyrimidin-5-yl)-3-(2-(4-methyl-1H-1,2,3-triazol-1-yl)-5-(trifluoromethyl)phenyl)urea], the inhibition at 3 µM [1] was 0%, the “Percent improvement (%)” value [2, 4] was 60% and the inhibition at 3 µM [3] was 6.5%.

`Nc1ncc(F)cc1-c1ccc(Oc2ncc(NC(=O)Nc3cc(C(F)(F)F)ccc3-n3ccnn3)cn2)cc1` [Example 14-5, 1-(2-(1H-1,2,3-triazol-1-yl)-5-(trifluoromethyl)phenyl)-3-(2-(4-(2-amino-5-fluoropyridin-3-yl)phenoxy)pyrimidin-5-yl)urea] was tested, and the inhibition at 3 µM [1] was 0%, the “Percent improvement (%)” value [2, 4] was 47% and the inhibition at 3 µM [3] was 13%.

`Nc1ncc(F)cc1-c1ccc(Oc2ncc(NC(=O)Nc3cc(C(F)(F)F)ccc3-c3cccnc3)cn2)cc1` [Example 14-6, 1-(2-(4-(2-amino-5-fluoropyridin-3-yl)phenoxy)pyrimidin-5-yl)-3-(2-(pyridin-3-yl)-5-(trifluoromethyl)phenyl)urea] was tested, and the inhibition at 3 µM [1] was 1.7%, the “Percent improvement (%)” value [2, 5] was 53% and the inhibition at 3 µM [3] was 45%.

With `Nc1ncc(Cl)cc1-c1ccc(Oc2ncc(NC(=O)Nc3ccc(C(F)(F)F)cc3Cl)cn2)cc1` [Example 15-6, 1-(2-(4-(2-amino-5-chloropyridin-3-yl)phenoxy)pyrimidin-5-yl)-3-(2-chloro-4-(trifluoromethyl)phenyl)urea] the inhibition at 3 µM [1] was 0%, the “Percent improvement (%)” value [2, 4] was 51% and the inhibition at 3 µM [3] was 37%.

In the case of `Nc1ncc(C(F)(F)F)cc1-c1ccc(Oc2ncc(NC(=O)Nc3cc(C(F)(F)F)ccc3-n3ccc(C(F)(F)F)n3)cn2)cc1` [Example 15-52, 1-(2-{4-[2-amino-5-(trifluoromethyl)-3-pyridinyl]phenoxyl}-5-pyrimidinyl)-3-{5-(trifluoromethyl)-2-[3-(trifluoromethyl)-1H-pyrazol-1-yl]phenyl}urea], the inhibition at 3 µM [1] is reported as 0%, the “Percent improvement (%)” value [2, 5] is reported as 60% and the inhibition at 3 µM [3] is reported as 20%.

For `Nc1ncc(Cl)cc1-c1ccc(Oc2ncc(NC(=O)Nc3cc(C(F)(F)F)ccc3-c3ccccc3)cn2)cc1` [Example 15-55, 1-{2-[4-(2-amino-5-chloro-3-pyridinyl)phenoxy]-5-pyrimidinyl}-3-[4-(trifluoromethyl)-2-biphenylyl]urea], the inhibition at 3 µM [1] was 0%, the “Percent improvement (%)” value [2, 5] was 62% and the inhibition at 3 µM [3] was 30%.

With `Nc1ncc(Cl)cc1-c1ccc(Oc2ncc(NC(=O)Nc3cc(C(F)(F)F)ccc3-n3cc(Cl)cn3)cn2)cc1` [Example 15-63, 1-{2-[4-(2-amino-5-chloro-3-pyridinyl)phenoxy]-5-pyrimidinyl}-3-[2-(4-chloro-1H-pyrazol-1-yl)-5-(trifluoromethyl)phenyl]urea] the inhibition at 3 µM [1] was 0%, the “Percent improvement (%)” value [2, 5] was 53% and the inhibition at 3 µM [3] was 43%.

With `Nc1ncc(Cl)cc1-c1ccc(Oc2ncc(NC(=O)Nc3ccc(C(F)(F)F)cc3C(F)(F)F)cn2)cc1` [Example 15-77, 1-{2-[4-(2-amino-5-chloro-3-pyridinyl)phenoxy]-5-pyrimidinyl}-3-[2,4-bis(trifluoromethyl)phenyl]urea] the inhibition at 3 µM [1] was 0%, the “Percent improvement (%)” value [2, 5] was 55% and the inhibition at 3 µM [3] was 32%.

With `Nc1ncc(C(F)(F)F)cc1-c1ccc(Oc2ncc(NC(=O)Nc3cc(C(F)(F)F)ccc3-n3cc(Cl)cn3)cn2)cc1` [Example 15-87, 1-(2-{4-[2-amino-5-(trifluoromethyl)-3-pyridinyl]phenoxyl}-5-pyrimidinyl)-3-[2-(4-chloro-1H-pyrazol-1-yl)-5-(trifluoromethyl)phenyl]urea] the inhibition at 3 µM [1] was 0%, the “Percent improvement (%)” value [2, 5] was 57% and the inhibition at 3 µM [3] was 34%.

For `CS(=O)(=O)c1ccc(C(F)(F)F)cc1NC(=O)Nc1cnc(Oc2ccc(-c3cc(C(F)(F)F)cnc3N)cc2)nc1` [Example 15-98, 1-(2-{4-[2-amino-5-(trifluoromethyl)-3-pyridinyl]phenoxyl}-5-pyrimidinyl)-3-[2-(methylsulfonyl)-5-(trifluoromethyl)phenyl]urea], the inhibition at 3 µM [1] was 8%, the “Percent improvement (%)” value [2, 5] was 57% and the inhibition at 3 µM [3] was 23%.

In the case of `CS(=O)(=O)c1ccc(C(F)(F)F)cc1NC(=O)Nc1cnc(Oc2ccc(-c3cc(Cl)cnc3N)cc2)nc1` [Example 15-104, 1-{2-[4-(2-amino-5-chloro-3-pyridinyl)phenoxy]-5-pyrimidinyl}-3-[2-(methylsulfonyl)-5-(trifluoromethyl)phenyl]urea], the inhibition at 3 µM [1] is reported as 18%, the “Percent improvement (%)” value [2, 5] is reported as 54% and the inhibition at 3 µM [3] is reported as 53%.

`COc1ccn2ncc(-c3ccc(Oc4ncc(NC(=O)Nc5cc(C(F)(F)F)ccc5-c5cccnc5)cn4)cc3)c2n1` [Example 21-9, 1-(2-(4-(5-methoxypyrazolo[1,5-a]pyrimidin-3-yl)phenoxy)pyrimidin-5-yl)-3-(2-(pyridin-3-yl)-5-(trifluoromethyl)phenyl)urea] was tested, and the “Percent improvement (%)” value [2, 4] was 64%.

`O=C(Nc1cnc(Oc2ccc(-c3cnn4cccnc34)cc2)nc1)Nc1cc(C(F)(F)F)ccc1-c1cccnc1` [Example 21-13, 1-(2-(4-(pyrazolo[1,5-a]pyrimidin-3-yl)phenoxy)pyrimidin-5-yl)-3-(2-(pyridin-3-yl)-5-(trifluoromethyl)phenyl)urea] was tested, and the “Percent improvement (%)” value [2, 4] was 66%.

With `CN(C)c1ccn2ncc(-c3ccc(Oc4ncc(NC(=O)Nc5cc(C(F)(F)F)ccc5-c5cccnc5)cn4)cc3)c2n1` [Example 21-37] the inhibition at 3 µM [1] was 16%, the “Percent improvement (%)” value [2, 5] was 67% and the inhibition at 3 µM [3] was 50%.

For `CN(C)c1ccn2ncc(-c3ccc(Oc4ncc(NC(=O)Nc5cc(C(F)(F)F)ccc5-c5ccnn5C)cn4)cc3)c2n1` [Example 21-51, 1-(2-{4-[5-(dimethylamino)pyrazolo[1,5-a]pyrimidin-3-yl]phenoxyl}-5-pyrimidinyl)-3-[2-(1-methyl-1H-pyrazol-5-yl)-5-(trifluoromethyl)phenyl]urea], the inhibition at 3 µM [1] was 9%, the “Percent improvement (%)” value [2, 5] was 68% and the inhibition at 3 µM [3] was 49%.

For `CCNc1ccn2ncc(-c3ccc(Oc4ncc(NC(=O)Nc5cc(C(F)(F)F)ccc5-c5cccc(C)c5)cn4)cc3)c2n1` [Example 21-67, 1-(2-{4-[5-(ethylamino)pyrazolo[1,5-a]pyrimidin-3-yl]phenoxyl}-5-pyrimidinyl)-3-[3′-methyl-4-(trifluoromethyl)-2-biphenylyl]urea], the inhibition at 3 µM [1] was 0% and the inhibition at 3 µM [3] was 19%.

With `CN(C)c1ccn2ncc(-c3ccc(Oc4ncc(NC(=O)Nc5cc(C(F)(F)F)ccc5-c5ccccc5)cn4)cc3)c2n1` [Example 21-70, 1-(2-{4-[5-(dimethylamino)pyrazolo[1,5-a]pyrimidin-3-yl]phenoxyl}-5-pyrimidinyl)-3-[4-(trifluoromethyl)-2-biphenylyl]urea] the inhibition at 3 µM [1] was 0%, the “Percent improvement (%)” value [2, 5] was 61% and the inhibition at 3 µM [3] was 19%.

`Cc1cccc(-c2ccc(C(F)(F)F)cc2NC(=O)Nc2cnc(Oc3ccc(-c4cnn5ccc(N(C)C)nc45)cc3)nc2)c1` [Example 21-73, 1-(2-{4-[5-(dimethylamino)pyrazolo[1,5-a]pyrimidin-3-yl]phenoxyl}-5-pyrimidinyl)-3-[3′-methyl-4-(trifluoromethyl)-2-biphenylyl]urea] was tested, and the inhibition at 3 µM [1] was 0%, the “Percent improvement (%)” value [2, 5] was 62% and the inhibition at 3 µM [3] was 21%.

`Cc1ccccc1-c1ccc(C(F)(F)F)cc1NC(=O)Nc1cnc(Oc2ccc(-c3cnn4ccc(N(C)C)nc34)cc2)nc1` [Example 21-75, 1-(2-{4-[5-(dimethylamino)pyrazolo[1,5-a]pyrimidin-3-yl]phenoxyl}-5-pyrimidinyl)-3-[2′-methyl-4-(trifluoromethyl)-2-biphenylyl]urea] gave an inhibition at 3 µM [1] of 0% and an inhibition at 3 µM [3] of 41%.

Work on `CCOc1ccc2ncc(-c3ccc(Oc4ncc(NC(=O)Nc5cc(C(F)(F)F)ccc5-c5cccnc5)cn4)cc3)n2n1` [Example 22-34, 1-{2-[4-(6-ethoxyimidazo[1,2-b]pyridazin-3-yl)phenoxy]-5-pyrimidinyl}-3-[2-(3-pyridinyl)-5-(trifluoromethyl)phenyl]urea] yielded an inhibition at 3 µM [1] of 19% and an inhibition at 3 µM [3] of 56%.

For `COc1cccc(C2(O)CCCCC2CN(C)C)c1` (stereo not drawn) [Tramadol, tramadol, reference compound], the “Percent improvement (%)” value ([2]; 10 mg/kg subcutaneously 1 hour before measurement on day 24) was 43%.
